Like-named read-outs stand apart in the source and are kept apart here.
Key:
H5N1V116A virus [1] = type: cell-based, influenza A virus; settings: read-out: IC50 (50% Inhibitory Concentration) H5N1V116A
H5N1N295S virus [2] = type: cell-based, influenza A virus; settings: read-out: IC50 (50% Inhibitory Concentration) H5N1N295S
[3] = tested on: A/California/04/2009 (H1N1); assay: microbe, parasite or virus in culture; type: cell-based; settings: Influenza A virus
in vitro = settings: dog
[4] = tested on: A/chicken/Egypt/B13825A/2017 (H5N1wild); assay: microbe, parasite or virus in culture; type: cell-based; settings: Influenza A virus
H1N1 virus [5] = type: cell-based
H1N1 virus [6] = settings: mouse, in vivo
[7] = mouse, in vivo
H5N1N295S virus [8] = type: cell-based, influenza A virus
H5N1wild virus [9] = settings: mouse, in vivo
H5N1wild virus [10] = type: cell-based
H5N1V116A virus [11] = type: cell-based, influenza A virus
H5N1wild virus [12] = assay: microbe, parasite or virus in culture; type: cell-based; settings: Influenza A virus, read-out: viral inhibition in the count of plaques, H5N1wild
H5N1N295S virus [13] = type: cell-based, influenza A virus; remark: listed apart in the source
H5N1V116A virus [14] = type: cell-based, influenza A virus; remark: listed apart in the source
[15] = H1N1, read-out: IC50 (50% Inhibitory Concentration) H1N1
[16] = H1N1, read-out: IC50 H1N1 (Figure 5)
[17] = read-out: IC50 (50% Inhibitory Concentration) H5N1wild
[18] = read-out: IC50 H5N1wild (Figure 5)

CC(=O)OC[C@H]1O[C@@H](OCc2cn(Cc3nc4ccccc4[nH]3)nn2)[C@H](OC(C)=O)[C@@H](OC(C)=O)[C@@H]1OC(C)=O [Compound 7a, (2R,3R,4S,5R,6R)-2-((1-((1H-Benzo[d]imidazol-2-yl)methyl)-1H-1,2,3-triazol-4-yl)methoxy)-6-(acetoxymethyl)tetrahydro-2H-pyran-3,4,5-triyl Triacetate]
IC50 (H5N1V116A virus [1]): 48.3 µM | IC50 (H5N1N295S virus [2]): 283 µM | IC50 [3, 15]: 84.9 µM | IC50 [3, 16]: 84.9 µM | CC50 at 72 h (in vitro): 685 µM | IC50 [4, 17]: 325 µM | IC50 [4, 18]: 325 µM

CC(=O)OC[C@H]1O[C@@H](OCc2cn(Cc3nc4ccccc4o3)nn2)[C@H](OC(C)=O)[C@@H](OC(C)=O)[C@@H]1OC(C)=O [Compound 7b, (2R,3R,4S,5R,6R)-2-(Acetoxymethyl)-6-((1-(benzo[d]oxazol-2-ylmethyl)-1H-1,2,3-triazol-4-yl)methoxy)tetrahydro-2H-pyran-3,4,5-triyl Triacetate]
IC50 (H5N1V116A virus [1]): 22.6 µM | IC50 (H5N1N295S virus [2]): 15.5 µM | IC50 [3, 15]: 1.68 µM | IC50 [3, 16]: 1.68 µM | CC50 at 72 h (in vitro): 1050 µM | IC50 [4, 17]: 37 µM

CC(=O)OC[C@H]1O[C@@H](OCc2cn(Cc3nc4ccccc4s3)nn2)[C@H](OC(C)=O)[C@@H](OC(C)=O)[C@@H]1OC(C)=O [Compound 7c, (2R,3R,4S,5R,6R)-2-(Acetoxymethyl)-6-((1-(benzo[d]thiazol-2-ylmethyl)-1H-1,2,3-triazol-4-yl)methoxy)tetrahydro-2H-pyran-3,4,5-triyl Triacetate]
IC50 (H5N1V116A virus [1]): 11.3 µM | IC50 (H5N1N295S virus [2]): 37.4 µM | IC50 [3, 15]: 1.65 µM | IC50 [3, 16]: 1.66 µM | CC50 at 72 h (in vitro): 764 µM | IC50 [4, 17]: 1.62 µM

CC(=O)OC[C@H]1O[C@@H](OCc2cn(Cc3nc4ccccc4[nH]3)nn2)[C@H](OC(C)=O)[C@@H](OC(C)=O)[C@H]1OC(C)=O [Compound 8a, (2R,3R,4S,5S,6R)-2-((1-((1H-Benzo[d]imidazol-2-yl)methyl)-1H-1,2,3-triazol-4-yl)methoxy)-6-(acetoxymethyl)tetrahydro-2H-pyran-3,4,5-triyl Triacetate]
IC50 (H5N1V116A virus [1]): 924 µM | IC50 (H5N1N295S virus [2]): 22.8 µM | IC50 [3, 15]: 1.61 µM | CC50 at 72 h (in vitro): 503 µM | IC50 [4, 17]: 26.3 µM

CC(=O)OC[C@H]1O[C@@H](OCc2cn(Cc3nc4ccccc4o3)nn2)[C@H](OC(C)=O)[C@@H](OC(C)=O)[C@H]1OC(C)=O [Compound 8b, (2R,3S,4S,5R,6R)-2-(Acetoxymethyl)-6-((1-(benzo[d]oxazol-2-ylmethyl)-1H-1,2,3-triazol-4-yl)methoxy)tetrahydro-2H-pyran-3,4,5-triyl Triacetate]
IC50 (H5N1V116A virus [1]): 16.2 µM | IC50 (H5N1N295S virus [2]): 19.6 µM | inhibition in the viral HA titer, H1N1 (H1N1 virus [5]): more than 80% | survival after infection with H1N1 (H1N1 virus [6]): 60% | external observations of mice [7]: normal in external observations | ALT ([7]; 20 mg/kg): 10.66 ± 4.32 | AST ([7]; 20 mg/kg): 15 ± 3.41 | Creatinine ([7]; 20 mg/kg): 0.17 ± 0.04 | Urea ([7]; 20 mg/kg): 9.00 ± 3.81 | ALT ([7]; 40 mg/kg): 8.20 ± 2.62 | AST ([7]; 40 mg/kg): 15.77 ± 0.9944 | Creatinine ([7]; 40 mg/kg): 0.13 ± 0.04 | Urea ([7]; 40 mg/kg): 6.66 ± 1.54 | ALT ([7]; 80 mg/kg): 6.72 ± 1.47 | AST ([7]; 80 mg/kg): 16 ± 5.099 | Creatinine ([7]; 80 mg/kg): 0.10 ± 0.02 | Urea ([7]; 80 mg/kg): 7.32 ± 3.90 | inhibition in the viral HA titer, H5N1N295S (H5N1N295S virus [8]): not more than 60% | survival after infection with H5N1wild (H5N1wild virus [9]): 60% | inhibition in the viral HA titer, H5N1wild (H5N1wild virus [10]): more than 80% | IC50 [3, 15]: 1.7 µM | IC50 [3, 16]: 1.7 µM | CC50 at 72 h (in vitro): 788 µM | inhibition in the viral HA titer, H5N1V116A (H5N1V116A virus [11]): more than 80% | IC50 [4, 17]: 8.63 µM

CC(=O)OC[C@H]1O[C@@H](OCc2cn(Cc3nc4ccccc4s3)nn2)[C@H](OC(C)=O)[C@@H](OC(C)=O)[C@H]1OC(C)=O [Compound 8c, (2R,3S,4S,5R,6R)-2-(Acetoxymethyl)-6-((1-(benzo[d]thiazol-2-ylmethyl)-1H-1,2,3-triazol-4-yl)methoxy)tetrahydro-2H-pyran-3,4,5-triyl Triacetate]
IC50 (H5N1V116A virus [1]): 68.6 µM | IC50 (H5N1N295S virus [2]): 64.7 µM | IC50 [3, 15]: 1.64 µM | IC50 [3, 16]: 1.64 µM | CC50 at 72 h (in vitro): 312 µM | IC50 [4, 17]: 1.65 µM

CC(=O)O[C@@H]1[C@@H](OC(C)=O)[C@H](OCc2cn(Cc3nc4ccccc4[nH]3)nn2)OC[C@H]1OC(C)=O [Compound 9a, (2R,3R,4S,5R,)-2-((1-((1H-Benzo[d]imidazol-2-yl)methyl)-1H-1,2,3-triazol-4-yl)methoxy)tetrahydro-2H-pyran-3,4,5-triyl Triacetate]
IC50 (H5N1V116A virus [1]): 5.62 µM | IC50 (H5N1N295S virus [2]): 5.62 µM | inhibition in the viral HA titer, H1N1 (H1N1 virus [5]): more than 80% | survival after infection with H1N1 (H1N1 virus [6]): 60% | viral titer in lung tissue (TCID50), H1N1 (H1N1 virus [6]): significantly reduced the propagation | virus shedding in the nasal wash (EID50), H1N1 (H1N1 virus [6]): significantly reduced the viral titer | external observations of mice [7]: normal in external observations | ALT ([7]; 20 mg/kg): 9.64 ± 3.64 | AST ([7]; 20 mg/kg): 20 ± 6.957 | Creatinine ([7]; 20 mg/kg): 0.13 ± 0.04 | Urea ([7]; 20 mg/kg): 7.32 ± 2.09 | ALT ([7]; 40 mg/kg): 10.64 ± 1.38 | AST ([7]; 40 mg/kg): 13.77 ± 1.298 | Creatinine ([7]; 40 mg/kg): 0.13 ± 0.04 | Urea ([7]; 40 mg/kg): 7.32 ± 0.48 | ALT ([7]; 80 mg/kg): 8.67 ± 2.16 | AST ([7]; 80 mg/kg): 15.33 ± 0.9686 | Creatinine ([7]; 80 mg/kg): 0.17 ± 0.04 | Urea ([7]; 80 mg/kg): 4.64 ± 1.12 | inhibition in the viral HA titer, H5N1N295S (H5N1N295S virus [8]): not more than 50% | virus shedding in the nasal wash (EID50), H5N1wild (H5N1wild virus [9]): reduced the viral shedding | inhibition in the viral HA titer, H5N1wild (H5N1wild virus [10]): not more than 50% | IC50 [3, 15]: 1.65 µM | IC50 [3, 16]: 1.65 µM | CC50 at 72 h (in vitro): 795 µM | inhibition in the viral HA titer, H5N1V116A (H5N1V116A virus [11]): more than 80% | IC50 [4, 17]: 5.8 µM

CC(=O)O[C@@H]1[C@@H](OC(C)=O)[C@H](OCc2cn(Cc3nc4ccccc4o3)nn2)OC[C@H]1OC(C)=O [Compound 9b, (2R,3R,4S,5R)-2-((1-(Benzo[d]oxazol-2-ylmethyl)-1H-1,2,3-triazol-4-yl)methoxy)tetrahydro-2H-pyran-3,4,5-triyl Triacetate]
IC50 (H5N1V116A virus [1]): 56.7 µM | IC50 (H5N1N295S virus [2]): 12.3 µM | IC50 [3, 15]: 1.68 µM | CC50 at 72 h (in vitro): 478 µM | IC50 [4, 17]: 1.67 µM

CC(=O)O[C@@H]1[C@@H](OC(C)=O)[C@H](OCc2cn(Cc3nc4ccccc4s3)nn2)OC[C@H]1OC(C)=O [Compound 9c, (2R,3R,4S,5R)-2-((1-(Benzo[d]thiazol-2-ylmethyl)-1H-1,2,3-triazol-4-yl)methoxy)tetrahydro-2H-pyran-3,4,5-triyl Triacetate]
IC50 (H5N1V116A virus [1]): 1.65 µM | IC50 (H5N1N295S virus [2]): 55.1 µM | inhibition in the viral HA titer, H1N1 (H1N1 virus [5]): more than 80% | survival after infection with H1N1 (H1N1 virus [6]): full protection from mortality | viral titer in lung tissue (TCID50), H1N1 (H1N1 virus [6]): reduced the propagation | external observations of mice [7]: normal in external observations | ALT ([7]; 20 mg/kg): 7.60 ± 1.56 | AST ([7]; 20 mg/kg): 11.93 ± 3.765 | Creatinine ([7]; 20 mg/kg): 0.14 ± 0.05 | Urea ([7]; 20 mg/kg): 7.90 ± 3.13 | ALT ([7]; 40 mg/kg): 7.80 ± 2.07 | AST ([7]; 40 mg/kg): 9.689 ± 2.922 | Creatinine ([7]; 40 mg/kg): 0.14 ± 0.05 | Urea ([7]; 40 mg/kg): 3.64 ± 1.49 | ALT ([7]; 80 mg/kg): 5.54 ± 1.22 | AST ([7]; 80 mg/kg): 12.33 ± 3.169 | Creatinine ([7]; 80 mg/kg): 0.13 ± 0.04 | Urea ([7]; 80 mg/kg): 4.88 ± 2.13 | inhibition in the viral HA titer, H5N1N295S (H5N1N295S virus [8]): not more than 50% | survival after infection with H5N1wild (H5N1wild virus [9]): 80% | viral titer in lung tissue (TCID50), H5N1wild (H5N1wild virus [9]): reduced the propagation | virus shedding in the nasal wash (EID50), H5N1wild (H5N1wild virus [9]): reduced the viral shedding | inhibition in the viral HA titer, H5N1wild (H5N1wild virus [10]): more than 80% | IC50 [3, 15]: 1.64 µM | IC50 [3, 16]: 1.64 µM | CC50 at 72 h (in vitro): 302 µM | inhibition in the viral HA titer, H5N1V116A (H5N1V116A virus [11]): more than 80% | IC50 [4, 17]: 2.25 µM

CCOC(=O)C1=C[C@H](N)C(NC(C)=O)[C@H](OC(CC)CC)C1 (stereo partly drawn) [oseltamivir, reference compound]
inhibition at 5 µM (H5N1wild virus [12]): ~90% | IC50 (H5N1V116A virus [1]): 309 µM | IC50 (H5N1N295S virus [2]): 25.8 µM | inhibition in the viral HA titer, H1N1 (H1N1 virus [5]): not more than 80% | mortality after infection with H1N1 (H1N1 virus [6]): 60% | viral titer in lung tissue (TCID50), H1N1 (H1N1 virus [6]): did not affect | inhibition in the viral HA titer, H5N1N295S (H5N1N295S virus [8]): ≤ 20% | survival after infection with H5N1wild (H5N1wild virus [9]): 60% | viral titer in lung tissue (TCID50), H5N1wild (H5N1wild virus [9]): reduced the propagation | inhibition in the viral HA titer, H5N1wild (H5N1wild virus [10]): ≤ 20% | IC50 [3, 15]: 1.65 µM | CC50 at 72 h (in vitro): 581 µM | inhibition in the viral HA titer, H5N1V116A (H5N1V116A virus [11]): not more than 80% | viral inhibition in the count of plaques, H5N1N295S (H5N1N295S virus [13]): ~8.5% | IC50 [4, 17]: 10.1 µM | IC50 [4, 18]: 10.1 µM | viral inhibition in the count of plaques, H5N1V116A (H5N1V116A virus [14]): ~40%

Reference: PMC8950700 (Pharmaceuticals, 2022)
